Structures are written as SMILES.

The text below walks through data of patent publication US20160130259A1, “SUBSTITUTED BENZOFURAN COMPOUNDS AND METHODS OF USE THEREOF FOR THE TREATMENT OF VIRAL DISEASES” (priority 2013, published 2016).

The subject of one assay is HCV replicon genotype 1a. Kind of assay: HCV replicon assay, genotype 1a (cell ELISA for NS3/4A). As to conditions: Hepatitis C virus, 96 h, read-out: 1a IC50 (nM). The class given is cell-based. The protocol:
(§1) Measurement of inhibition by compounds was performed using the HCV replicon system. Several different replicons encoding different HCV genotypes or mutations were used. In addition, potency measurements were made using different formats of the replicon assay, including different ways of measurements and different plating formats. See Jan M. Vrolijk et al., A replicons-based bioassay for the measurement of interferons in patients with chronic hepatitis C, 110 J. Virological Methods 201 (2003); Steven S. Carroll et al., Inhibition of Hepatitis C Virus RNA Replication by 2′-Modified Nucleoside Analogs, 278(14) J. Biological Chemistry 11979 (2003). However, the underlying principles are common to all of these determinations, and are outlined below.
(§2) Stable neomycin phosphotransferase encoding replicons-harboring cell lines were used, so all cell lines were maintained under G418 selection prior to the assay. Potency was determined using a cell ELISA assay with an antibody to the replicons encoded NS3/4a protease. See Caterina Trozzi et al., In Vitro Selection and Characterization of Hepatitis C Virus Serine Protease Variants Resistant to an Active-Site Peptide Inhibitor, 77(6) J. Virol. 3669 (2003). To initiate an assay, replicon cells were plated in the presence of a dilution series of test compound in the absence of G418. Typically, the assays were performed in a 96-well plate formate for manual operation, or a 384-well plate format for automated assay. Replicon cells and compound were incubated for 96 hours. At the end of the assay, cells were washed free of media and compound, and the cells were then lysed. RNA was quantified indirectly through detection of replicon-encoded NS3/4A protein levels, through an ELISA-based assay with an antibody specific for NS3/4A. IC50 determinations were calculated as a percentage of a DMSO control by fitting the data to a four-parameter fit function and the data obtained is provided in the table below.
(§3) Data for selected compounds of the present invention was obtained for genotypes 1a and 1b using this method and is provided in the table below: […]
On the technique in general: Replicon systems follow genome replication, usually without infectious particles.

The test system of a further assay is HCV replicon genotype 1b. Kind of assay: HCV replicon assay, genotype 1b (cell ELISA for NS3/4A). The class given is cell-based. As to conditions: Hepatitis C virus, 96 h, read-out: 1b IC50 (nM). The method, then: as §1, §2, §3

As a reminder, the IC50 is the concentration that inhibits the measured activity by half. Take `CNC(=O)c1c(-c2ccc(F)cc2)oc2cc(N(C)S(C)(=O)=O)c(-c3cc(-c4cc5c(F)cccc5[nH]4)c(=O)n(C)c3)cc12` [Compound 1, 5-(5-(4-fluoro-1H-indol-2-yl)-1-methyl-6-oxo-1,6-dihydropyridin-3-yl)-2-(4-fluorophenyl)-N-methyl-6-(N-methylmethylsulfonamido)benzofuran-3-carboxamide]: the IC50 with HCV replicon genotype 1a worked out at 3.62 nM; in the assay on HCV replicon genotype 1b it was 3.88 nM.
The matching figures for `CNC(=O)c1c(-c2ccc(F)cc2)oc2cc(N(C)S(C)(=O)=O)c(-c3cc(-c4cc5c(C#N)cccc5[nH]4)c(=O)n(C)c3)cc12` [Compound 2, 5-(5-(4-cyano-1H-indol-2-yl)-1-methyl-6-oxo-1,6-dihydropyridin-3-yl)-2-(4-fluorophenyl)-N-methyl-6-(N-methylmethylsulfonamido)-benzofuran-3-carboxamide]: 2.47 nM and 2.43 nM.
Consider `CNC(=O)c1c(-c2ccc(F)cc2)oc2cc(N(C)S(C)(=O)=O)c(-c3cc(-c4cc5c(F)cccc5[nH]4)c(=O)n(C(F)F)c3)cc12` [Compound 3, 5-(1-(difluoromethyl)-5-(4-fluoro-1H-indol-2-yl)-6-oxo-1,6-dihydropyridin-3-yl)-2-(4-fluorophenyl)-N-methyl-6-(N-methylmethyl-sulfonamido)benzofuran-3-carboxamide], for which the IC50 with HCV replicon genotype 1a came out at 2.98 nM; in the assay with HCV replicon genotype 1b it was 5.37 nM.
As for `CNC(=O)c1c(-c2ccc(F)cc2)oc2cc(N(C)S(C)(=O)=O)c(-c3cc(-c4cnn(-c5ccc(F)cc5)c4)c(=O)n(C)c3)cc12` [Compound 4, 2-(4-fluorophenyl)-5-(5-(1-(4-fluorophenyl)-1H-pyrazol-4-yl)-1-methyl-6-oxo-1,6-dihydropyridin-3-yl)-N-methyl-6-(N-methyl-methylsulfonamido)benzo-furan-3-carboxamide], the results for the IC50 in the assay with HCV replicon genotype 1a and with HCV replicon genotype 1b were 5.71 nM and 6.81 nM, respectively.
With `CNC(=O)c1c(-c2ccc(F)cc2)oc2cc(N(C)S(C)(=O)=O)c(-c3cc(-c4nc5ccccc5o4)c(=O)n(C)c3)cc12` [Compound 5, 5-(5-(benzo[d]oxazol-2-yl)-1-methyl-6-oxo-1,6-dihydropyridin-3-yl)-2-(4-fluorophenyl)-N-methyl-6-(N-methylmethylsulfonamido)benzofuran-3-carboxamide], the values for the IC50 in the assay on HCV replicon genotype 1a and with HCV replicon genotype 1b were 5.82 nM and 3.71 nM, respectively.
The matching figures for `CNC(=O)c1c(-c2ccc(F)cc2)oc2cc(N(C)S(C)(=O)=O)c(-c3cc(N4Cc5c(F)cccc5C4=O)c(=O)n(C)c3)cc12` [Compound 6, 5-(5-(4-fluoro-1-oxoisoindolin-2-yl)-1-methyl-6-oxo-1,6-dihydropyridin-3-yl)-2-(4-fluorophenyl)-N-methyl-6-(N-methylmethylsulfonamido)benzofuran-3-carboxamide]: 16.5 nM and 8.38 nM.
As for `CNC(=O)c1c(-c2ccc(F)cc2)oc2cc(N(C)S(C)(=O)=O)c(-c3cc(-c4cc5c(F)cccc5n4C)c(=O)n(C)c3)cc12` [Compound 7, 5-(5-(4-fluoro-1-methyl-1H-indol-2-yl)-1-methyl-6-oxo-1,6-dihydropyridin-3-yl)-2-(4-fluorophenyl)-N-methyl-6-(N-methylmethylsulfonamido)benzofuran-3-carboxamide], the figures for the IC50 with HCV replicon genotype 1a and in the assay with HCV replicon genotype 1b were 1.55 nM and 1.1 nM, respectively.
On to `CNC(=O)c1c(-c2ccc(F)cc2)oc2cc(N(C)S(C)(=O)=O)c(-c3cc(-c4cc5c(F)cccc5n4C)c(=O)n(C(F)F)c3)cc12` [Compound 8, 5-(1-(difluoromethyl)-5-(4-fluoro-1-methyl-1H-indol-2-yl)-6-oxo-1,6-dihydropyridin-3-yl)-2-(4-fluorophenyl)-N-methyl-6-(N-methyl-methylsulfonamido)benzo-furan-3-carboxamide], for which the values for the IC50 with HCV replicon genotype 1a and in the assay with HCV replicon genotype 1b were 6.45 nM and 5.95 nM, respectively.
The like results for `CNC(=O)c1c(-c2ccc(F)cc2)oc2cc(N(C)S(C)(=O)=O)c(-c3cc(-c4cc5ncccc5o4)c(=O)n(C)c3)cc12` [Compound 9, 2-(4-fluorophenyl)-5-(5-(furo[3,2-b]pyridin-2-yl)-1-methyl-6-oxo-1,6-dihydropyridin-3-yl)-N-methyl-6-(N-methylmethylsulfonamido)benzofuran-3-carboxamide] were, in that order, 13.4 nM and 4.16 nM.
With `CNC(=O)c1c(-c2ccc(F)cc2)oc2cc(N(C)S(C)(=O)=O)c(-c3cc(-c4nc5ncccc5o4)c(=O)n(C)c3)cc12` [Compound 10, 2-(4-fluorophenyl)-N-methyl-5-(1-methyl-5-(oxazolo[4,5-b]pyridin-2-yl)-6-oxo-1,6-dihydropyridin-3-yl)-6-(N-methylmethylsulfonamido) benzofuran-3-carboxamide], the IC50 is 22.7 nM in the assay on HCV replicon genotype 1a and 10.1 nM in the assay with HCV replicon genotype 1b.
The matching figures for `CNC(=O)c1c(-c2ccc(F)cc2)oc2cc(N(C)S(C)(=O)=O)c(-c3cc(-c4cc5c(F)cccc5[nH]4)cn(C)c3=O)cc12` [Compound 11, 5-(5-(4-fluoro-1H-indol-2-yl)-1-methyl-2-oxo-1,2-dihydropyridin-3-yl)-2-(4-fluorophenyl)-N-methyl-6-(N-methylmethylsulfonamido)benzofuran-3-carboxamide]: 3.84 nM and 2.67 nM.
The matching figures for `CNC(=O)c1c(-c2ccc(F)cc2)oc2cc(N(C)S(C)(=O)=O)c(-c3cc(-c4cc5c(C#N)cccc5[nH]4)cn(C)c3=O)cc12` [Compound 12, 5-(5-(4-cyano-1H-indol-2-yl)-1-methyl-2-oxo-1,2-dihydropyridin-3-yl)-2-(4-fluorophenyl)-N-methyl-6-(N-methylmethylsulfonamido) benzofuran-3-carboxamide]: 3.28 nM and 1.67 nM.
The matching figures for `CNC(=O)c1c(-c2ccc(F)cc2)oc2cc(N(C)S(C)(=O)=O)c(-c3cc(-c4cc5c(F)cccc5[nH]4)c(=O)n(C)n3)cc12` [Compound 13, 5-(5-(4-fluoro-1H-indol-2-yl)-1-methyl-6-oxo-1,6-dihydropyridazin-3-yl)-2-(4-fluorophenyl)-N-methyl-6-(N-methylmethylsulfonamido)benzofuran-3-carboxamide]: 4.52 nM and 6.59 nM.
In the case of `CNC(=O)c1c(-c2ccc(F)cc2)oc2cc(N(C)S(C)(=O)=O)c(-c3cc(-c4cc5c(C#N)cccc5[nH]4)c(=O)n(C)n3)cc12` [Compound 14, 5-(5-(4-cyano-1H-indol-2-yl)-1-methyl-6-oxo-1,6-dihydropyridazin-3-yl)-2-(4-fluorophenyl)-N-methyl-6-(N-methylmethylsulfonamido) benzofuran-3-carboxamide], the IC50 came out at 3.55 nM in the assay on HCV replicon genotype 1a and 4.43 nM in the assay on HCV replicon genotype 1b.
The like results for `CNC(=O)c1c(-c2ccc(F)cc2)oc2cc(N(C)S(C)(=O)=O)c(-c3cc(-c4cc5ncccc5[nH]4)c(=O)n(C)n3)cc12` [Compound 15, 2-(4-fluorophenyl)-N-methyl-5-(1-methyl-6-oxo-5-(1H-pyrrolo[3,2-b]pyridin-2-yl)-1,6-dihydropyridazin-3-yl)-6-(N-methylmethylsulfonamido) benzofuran-3-carboxamide] were, in that order, 238 nM and 81.1 nM.
On to `CNC(=O)c1c(-c2ccc(F)cc2)oc2cc(N(C)S(C)(=O)=O)c(-c3cc(-c4cc5c(F)cccc5n4C)c(=O)n(C)n3)cc12` [Compound 16, 5-(5-(4-fluoro-1-methyl-1H-indol-2-yl)-1-methyl-6-oxo-1,6-dihydropyridazin-3-yl)-2-(4-fluorophenyl)-N-methyl-6-(N-methylmethylsulfonamido)benzofuran-3-carboxamide], for which the IC50 in the assay on HCV replicon genotype 1a and in the assay on HCV replicon genotype 1b was 1.38 nM in each case.
On to `CNC(=O)c1c(-c2ccc(F)cc2)oc2cc(N(C)S(C)(=O)=O)c(-c3cc(-c4cc5c(C#N)cccc5n4C)c(=O)n(C)n3)cc12` [Compound 17, 5-(5-(4-cyano-1-methyl-1H-indol-2-yl)-1-methyl-6-oxo-1,6-dihydropyridazin-3-yl)-2-(4-fluorophenyl)-N-methyl-6-(N-methylmethylsulfonamido) benzofuran-3-carboxamide], for which the values for the 50% inhibitory concentration (IC50) in the assay on HCV replicon genotype 1a and in the assay on HCV replicon genotype 1b were 2.29 nM and 4.26 nM, respectively.
`CNC(=O)c1c(-c2ccc(F)cc2)oc2cc(N(C)S(C)(=O)=O)c(-c3cc(-c4cc5c(C#N)cccc5n4CCOC)c(=O)n(C)n3)cc12` [Compound 18, 5-(5-(4-cyano-1-(2-methoxyethyl)-1H-indol-2-yl)-1-methyl-6-oxo-1,6-dihydropyridazin-3-yl)-2-(4-fluorophenyl)-N-methyl-6-(N-methylmethylsulfonamido)benzofuran-3-carboxamide]: the IC50 with HCV replicon genotype 1a was 3.15 nM; with HCV replicon genotype 1b, 5.02 nM.
